US20040024024A1, “Aromatic sulfone hydroxamates and their use as protease inhibitors” (priority 2001, published 2004)
Values joined by “and” are separate entries in the source; they are usually repeats but may differ in a detail not shown here. Equal values may be shown once. Where a name gives a salt, the structure may show the parent alone.

Tests used:
Format in all cases: biochemical
Human recombinant MMP-13 = target: T1, Human recombinant MMP-13 (Homo sapiens, UniProt P45452); assay: In vitro MMP inhibition, IC50 determination (fluorogenic substrate I)
T1 construct: made in house; host or cells: baculovirus / insect cells
Method in brief: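 Fluorescence at 415 nm (excitation 328 nm) reports Gly-Leu cleavage of 4 μM quenched methoxycoumarin peptide substrate I. Human recombinant MMP-13, activated by trypsin or APMA, was incubated at room temperature with varied inhibitor concentrations in pH 7.5 Tris/NaCl/CaCl2 buffer; IC50 derived from reduced fluorescence.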

Human recombinant MMP-1 = target: T2, Human recombinant MMP-1 (Homo sapiens, UniProt P03956); assay: In vitro MMP inhibition, Ki determination (fluorogenic substrate II)
T2 construct: made in house; host or cells: MMP-1-transfected HT-1080 cells (spent media)
T2 sequence (P03956 100-469): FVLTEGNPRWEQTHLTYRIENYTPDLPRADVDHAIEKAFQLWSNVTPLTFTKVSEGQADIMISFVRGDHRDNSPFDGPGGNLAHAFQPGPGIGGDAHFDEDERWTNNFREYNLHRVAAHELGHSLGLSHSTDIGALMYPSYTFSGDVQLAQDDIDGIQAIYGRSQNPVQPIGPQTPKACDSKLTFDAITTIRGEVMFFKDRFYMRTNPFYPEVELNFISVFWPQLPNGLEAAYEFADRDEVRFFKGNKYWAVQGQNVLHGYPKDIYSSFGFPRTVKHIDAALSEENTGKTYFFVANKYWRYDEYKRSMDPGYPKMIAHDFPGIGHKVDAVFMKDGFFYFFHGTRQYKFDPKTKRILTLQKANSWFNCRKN
Experimental: (§1) Several hydroxamates and salts thereof were analyzed in in vitro assays to determine their ability to inhibit the MMP cleavage of peptide substrates. Inhibition (Ki) and IC50 constants were calculated from the assayed hydroxamate-MMP interactions.
(§2) Human recombinant MMP-1, MMP-2, MMP-9, MMP-13, and MMP-14 were used in this assay. All enzymes were prepared in Assignee's laboratories following usual laboratory procedures. Protocols for the preparation and use of these enzymes are available in the scientific literature. See, e.g., Enzyme Nomenclature (Academic Press, San Diego, Calif., 1992) (and the citations therein). See also, Frije et al., J. Biol. Chem., 26(24), 16766-73 (1994).
The MMP-1 proenzyme was purified from the spent media of MMP-1-transfected HT-1080 cells provided by Dr. Harold Welgus of Washington University (St. Louis, Mo.). The protein was purified on a zinc chelating column.
(§3) All MMPs were activated using 4-aminophenylmercuric acetate (“APMA”, Sigma Chemical, St. Louis, Mo.) or trypsin. MMP-9 also was activated using human recombinant MMP-3 (purified in Assignee's laboratory following standard cloning and purification techniques).
(§4) Two fluorogenic, methoxycoumarin-containing polypeptide substrates were used in the MMP inhibition assays:
(§5) MCA-ArgProLeuGlyLeuDpaAlaArgGluArgNH2 (II)
(§6) Here, “Dpa” is 3-(2,4-dinitrophenyl)-L-2,3-diaminopropionyl group, and “MCA” is 7-methoxycoumarin-4-yl acetyl. Substrate (I) was purchased from Baychem (Redwood City, Calif.), and substrate II was prepared Assignee's laboratory. Substrate I was used in the IC50 determination assays, while substrate II was used in the Ki determination assays. In the absence of MMP inhibitory activity, either substrate is cleaved at the Gly-Leu peptide bond. This cleavage separates the highly fluorogenic peptide from the 2,4-dinitrophenyl quencher, thus resulting in increase of fluorescent intensity.
(§7) The stock solutions of the assayed hydroxamates (or salts thereof) were prepared in 1% dimethyl sulfoxide (DMSO). These stock solutions were diluted in Buffer A (100 mM Tris-HCl, 100 mM NaCl, 10 mM CaCl2, 0.05% polyoxyethylene 23 lauryl ether, pH 7.5) to obtain solutions with different hydroxamate concentrations, i.e., assay solutions with different concentrations of the assayed MMP inhibitory compound. The experiment controls contained the same amount of Buffer A/DMSO as the assayed sample, but contained no hydroxamate (or salt thereof).
(§8) The assays from which the Ki determinations were made were performed as follows. The assayed hydroxamate samples were incubated in separate wells of untreated white polystyrene plates (Nunc Nalgene International, Rochester, N.Y.), and analyzed on a Tecan SpectraFlour Plus plate reader. The excitation wavelength was 330 nm, and the emission wavelength—420 nm. All samples (assayed hydroxamates and controls) were incubated in separate plate wells at room temperature for 1 hr in the presence of 4 μM of MMP substrate (II). In the absence of MMP inhibitory activity, substrate II was cleaved at the Gly-Leu bond resulting in an increase of relative fluorescence. Inhibition was observed as a reduced rate of this increase in relative fluorescence. The various hydroxamates were analyzed using a single low enzyme concentration with a single substrate concentration fixed at or below the Km. This protocol is a modification of method by Knight et al., FEBS Lett., 296(3), 263-266 (1992). Apparent inhibitory constants were determined by non-linear regression of reaction velocity as a function of inhibitor and enzyme concentration using Morrison's equation, as described by Kuzmic, Anal. Biochem. 286, 45-50 (2000). Modifications were made in the non-linear regression method to allow a common control reaction rate and effective enzyme concentration to be shared between all dose-response relationships on a given assay plate. […]

Human recombinant MMP-9 [1] = target: T3, Human recombinant MMP-9 (Homo sapiens, UniProt P14780); assay: as above
T3 construct: made in house; host or cells: MMP-9-transfected HT1080 cells (spent media)
Experimental: as §1, §2
The MMP-9 proenzyme was purified by gelatin Sepharose chromatography from spent media of MMP-9-transfected HT1080 cells provided by Dr. Howard Welgus of Washington University (St. Louis, Mo.).
as §3, §4, §5, §6, §7, §8

Human recombinant MMP-9 [2] = target: T3, Human recombinant MMP-9; assay: In vitro MMP inhibition, IC50 determination (fluorogenic substrate I)
Method in brief: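 MMP-9 proenzyme purified from transfected HT1080 cell media, activated with APMA or trypsin. Compound dilutions in pH 7.5 Tris/NaCl/CaCl2 buffer with 0.05% polyoxyethylene 23 lauryl ether, incubated at room temperature with 4 μM MCA/Dpa substrate I. IC50 from fluorescence loss (ex 328, em 415 nm) versus inhibitor concentration.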

[3] = substrate (I) 4 μM, room temperature, values not in parenthesis
[4] = substrate (II) 4 μM, 1 hr room temperature, apparent Ki, values in parenthesis

T3 sequence (P14780 107-707 limits assumed): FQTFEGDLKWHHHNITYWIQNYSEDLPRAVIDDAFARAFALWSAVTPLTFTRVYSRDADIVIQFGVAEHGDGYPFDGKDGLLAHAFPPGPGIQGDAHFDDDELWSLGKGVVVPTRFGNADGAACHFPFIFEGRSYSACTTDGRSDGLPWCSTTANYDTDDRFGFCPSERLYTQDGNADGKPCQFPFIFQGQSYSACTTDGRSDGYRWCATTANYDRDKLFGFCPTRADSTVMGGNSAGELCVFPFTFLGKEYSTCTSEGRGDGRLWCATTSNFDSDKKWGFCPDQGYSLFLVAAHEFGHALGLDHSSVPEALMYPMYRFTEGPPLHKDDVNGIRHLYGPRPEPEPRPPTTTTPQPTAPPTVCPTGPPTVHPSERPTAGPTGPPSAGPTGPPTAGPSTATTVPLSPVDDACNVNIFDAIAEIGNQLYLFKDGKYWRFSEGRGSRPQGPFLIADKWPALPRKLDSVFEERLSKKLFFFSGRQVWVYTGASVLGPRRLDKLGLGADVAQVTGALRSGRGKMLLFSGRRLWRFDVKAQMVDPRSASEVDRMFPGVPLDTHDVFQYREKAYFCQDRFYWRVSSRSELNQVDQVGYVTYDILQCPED

SMILES | IC50 (Human recombinant MMP-13; value outside parenthesis) [µM] | Ki (Human recombinant MMP-1; value in parenthesis) [µM] | Ki (Human recombinant MMP-9 [1]; value in parenthesis) [µM] | IC50 (Human recombinant MMP-13; value outside parentheses) [µM] | Ki (Human recombinant MMP-1; value in parentheses) [µM] | Ki (Human recombinant MMP-9 [1]; value in parentheses) [µM] | other results
O=C(NO)C1(S(=O)(=O)c2ccc(OCCCc3cccc(-c4ccc(F)cc4)c3)cc2)CCOCC1 [Example 39] | – | – | – | – | – | – | IC50 (Human recombinant MMP-13; [3]): 0.0009 µM; Ki (Human recombinant MMP-1; [4]): > 10 µM; Ki (Human recombinant MMP-9 [1]; [4]): 2.36 µM
COCCN1CCC(C(=O)NO)(S(=O)(=O)c2ccc(OCCCc3cc(-c4ccc(F)cc4F)cs3)cc2)CC1 [Example 47, 4-[(4-{3-[4-(2,4-difluorophenyl)thien-2-l]propoxy}phenyl)sulfonyl]-N-hydroxy-1-(2-methoxyethyl)piperidine-4-carboxamide Hydrochloride] | – | – | – | – | – | – | IC50 (Human recombinant MMP-13; [3]): 0.0002 µM; Ki (Human recombinant MMP-1; [4]): > 10 µM; Ki (Human recombinant MMP-9 [1]; [4]): 0.119 µM and 0.309 µM
COCCN1CCC(C(=O)NO)(S(=O)(=O)c2ccc(OCCCn3nnc(-c4ccc(OC(F)(F)F)cc4)n3)cc2)CC1 [Example 48] | – | – | – | – | – | – | IC50 (Human recombinant MMP-9 [2]; [3]): 4.45 µM; IC50 (Human recombinant MMP-13; [3]): 0.0002 µM; Ki (Human recombinant MMP-9 [1]; [4]): 0.159 µM
NC(=O)c1cccc(OCCOc2ccc(S(=O)(=O)C3(C(=O)NO)CCOCC3)cc2)c1 [Example 54] | – | – | – | – | – | – | IC50 (Human recombinant MMP-13; [3]): 0.0105 µM; Ki (Human recombinant MMP-1; [4]): > 10 µM; Ki (Human recombinant MMP-9 [1]; [4]): 0.388 µM
O=C(NO)C1(S(=O)(=O)c2ccc(OCCCc3cccc(-c4ccco4)c3)cc2)CCOCC1 [Example 97] | 0.0033 | 7.36 | 0.473 | – | – | – | –
O=C1Nc2ccc(-c3noc(CCCOc4ccc(S(=O)(=O)C5(C(=O)NO)CCN(C6CC6)CC5)cc4)n3)cc21 [Example 142] | 0.0075 | > 10 | 0.31 | – | – | – | –
O=C(NO)C1(S(=O)(=O)c2ccc(OCCCc3cccc(-c4ccc(OC(F)(F)F)cc4)c3)cc2)CCOCC1 [Example 147] | 0.0283 | > 10 | 7.97 | – | – | – | –
O=C(NO)C1(S(=O)(=O)c2ccc(OCCCc3cccc(-c4ccccn4)c3)cc2)CCOCC1 [Example 148] | 0.0031 | 8.79 | 0.427 | – | – | – | –
O=C(NO)C1(S(=O)(=O)c2ccc(OCCCc3cccc(-c4ccncc4)c3)cc2)CCOCC1 [Example 149] | 0.0013 | > 10 | 0.0945 | – | – | – | –
CC(C)c1ccc(-c2cccc(CCCOc3ccc(S(=O)(=O)C4(C(=O)NO)CCOCC4)cc3)c2)cc1 [Example 160] | 0.505 | > 10 | > 10 | – | – | – | –
O=C(NO)C1(S(=O)(=O)c2ccc(OCCCc3cccc(-c4ccccc4Cl)c3)cc2)CCOCC1 [Example 162] | 0.0156 | > 10 | 3.15 | – | – | – | –
Cc1ccccc1-c1cccc(CCCOc2ccc(S(=O)(=O)C3(C(=O)NO)CCOCC3)cc2)c1 [Example 164] | 0.02 | > 10 | 2.72 | – | – | – | –
Cc1ccc(-c2cccc(CCCOc3ccc(S(=O)(=O)C4(C(=O)NO)CCOCC4)cc3)c2)cc1C [Example 165] | 0.147 | > 10 | 9.75 | – | – | – | –
O=C(NO)C1(S(=O)(=O)c2ccc(OCCCc3cncc(Br)c3)cc2)CCOCC1 [Example 522] | – | – | – | 0.0003 | > 10 | 0.135 | –
O=C(NO)C1(S(=O)(=O)c2ccc(OCCCc3cncc(-c4ccccc4)c3)cc2)CCOCC1 [Example 524] | – | – | – | 0.0002 | – | 0.739 | IC50 (Human recombinant MMP-9 [2]; value outside parentheses): 1.84 µM
O=C(COc1ccc(S(=O)(=O)C2(C(=O)NO)CCOCC2)cc1)c1cccc(-c2ccccc2)c1 [Example 563] | – | – | – | 0.0011 | > 10 | 0.132 | –
O=C(CCCOc1ccc(S(=O)(=O)C2(C(=O)NO)CCOCC2)cc1)Nc1cccc(I)c1 [Example 570] | – | – | – | 0.0002 | 3.06 | 0.00615 | –
O=C(NO)C1(S(=O)(=O)c2ccc(OCCCc3cccc(-n4ccnc4)c3)cc2)CCOCC1 [Example 574] | – | – | – | 0.0007 | > 10 | 0.083 | –
O=C(NO)C1(S(=O)(=O)c2ccc(OCCCc3nc(-c4cccnc4)no3)cc2)CCOCC1 [Example 578] | – | – | – | 0.0029 | > 10 | 0.578 | –
O=C(NO)C1(S(=O)(=O)c2ccc(OCCCc3nc(-c4ccccc4)no3)cc2)CCOCC1 [Example 584] | – | – | – | 0.0036 | 2.76 | 0.0126 | –
O=C(NO)C1(S(=O)(=O)c2ccc(OCCCc3cccc(-c4cccs4)c3)cc2)CCOCC1 [Example 595] | – | – | – | 0.001 | – | 2.06 | IC50 (Human recombinant MMP-9 [2]; value outside parentheses): 1.73 µM
O=C(NO)C1(S(=O)(=O)c2ccc(OCCCc3cccc(-c4ccc(C(F)(F)F)cc4)c3)cc2)CCOCC1 [Example 625] | – | – | – | 0.0336 | > 10 | 4.6 | –
O=C(NO)C1(S(=O)(=O)c2ccc(OCCCc3cccc(-c4ccc5c(c4)OCCO5)c3)cc2)CCOCC1 [Example 627] | – | – | – | 0.0149 | > 10 | 3.15 | –
O=C(NO)C1(S(=O)(=O)c2ccc(OCCCc3cccc(-c4ccc5ccccc5c4)c3)cc2)CCOCC1 [Example 629] | – | – | – | 0.0786 | > 10 | 1.3 | –
O=C(NO)C1(S(=O)(=O)c2ccc(OCCCc3cccc(-c4csc5ccccc45)c3)cc2)CCOCC1 [Example 631] | – | – | – | 0.118 | > 10 | 5.81 | –
